Key:
[1] = molecular target: T1, HCV NS3/4A protease complex, BMS strain (UniProt P27958, C1454S/C1711G, species not given); test: FRET peptide assay to monitor HCV NS3/4A proteolytic activity (BMS strain); format: biochemical, HCV genotype 1a; conditions: read-out: IC50 Range; HCV NS3/4A enzyme assay; class symbols
T1 construct: other: HCV NS3/4A enzyme assay; class symbols; numeric values; fused on or other part: three-lysine solubilising tail at the C-terminus of NS4A; purified on Ni-NTA from the pET21b vector (His tag implied)
Summary of the method: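 Recombinant HCV NS3/4A protease complex (BMS strain, genotype 1a), 2-3 nM final (300 pM with 50 μg/ml BSA for very potent compounds), incubated with RET S1 EDANS/DABCYL depsipeptide substrate at 2 μM final. Buffer: 50 mM HEPES pH 7.5, 0.15 M NaCl, 0.1% Triton, 15% glycerol, 10 mM βME. Cleavage followed in real time by fluorescence.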

[2] = system: HCV replicon in HUH-7 cells; test: HCV replicon FRET assay; format: cell-based, HCV strain 1b; conditions: Hepatitis C virus, Huh-7, read-out: EC50 Range

Compound | IC50 [1] | EC50 [2]
C=C[C@@H]1C[C@]1(NC(=O)[C@@H]1C[C@@H](Oc2ncc(OC)c3ccc(Cl)cc23)CN1C(=O)[C@@H](Nc1nc(-c2cnccn2)cs1)C(C)(C)C)C(=O)NS(=O)(=O)C1CC1 [Example 26] | 1 to 20 nM | 1 to 50 nM
C=C[C@@H]1C[C@]1(NC(=O)[C@@H]1C[C@@H](Oc2ncc(OC)c3ccc(Cl)cc23)CN1C(=O)[C@@H](Nc1nc(-c2ccc(OC)cc2F)cs1)C(C)(C)C)C(=O)NS(=O)(=O)C1CC1 [Example 51] | 1 to 20 nM | 1 to 50 nM
C=C[C@@H]1C[C@]1(NC(=O)[C@@H]1C[C@@H](Oc2ncc(OC)c3ccc(Cl)cc23)CN1C(=O)[C@@H](Nc1nc(-c2cccc(OC)c2)cs1)C(C)(C)C)C(=O)NS(=O)(=O)C1CC1 [Example 35] | 1 to 20 nM | 1 to 50 nM
C=C[C@@H]1C[C@]1(NC(=O)[C@@H]1C[C@@H](Oc2ncc(OC)c3ccc(Cl)cc23)CN1C(=O)[C@@H](Nc1nc(-c2c(Cl)cccc2Cl)cs1)C(C)(C)C)C(=O)NS(=O)(=O)C1CC1 [Example 57] | 1 to 20 nM | 1 to 50 nM
C=C[C@@H]1C[C@]1(NC(=O)[C@@H]1C[C@@H](Oc2ncc(OC)c3ccc(Cl)cc23)CN1C(=O)[C@@H](Nc1nc(-c2ccc3c(c2)OCO3)cs1)C(C)(C)C)C(=O)NS(=O)(=O)C1CC1 [Example 40] | 1 to 20 nM | 1 to 50 nM
C=C[C@@H]1C[C@]1(NC(=O)[C@@H]1CC(Oc2ncc(OC)c3ccc(Cl)cc23)CN1C(=O)[C@@H](Nc1nc(-c2nc3ccccc3n2C)cs1)C(C)(C)C)C(=O)NS(=O)(=O)C1CC1 (some centres unmarked) [Example 42] | 1 to 20 nM | 1 to 50 nM
COc1cnc(O[C@@H]2C[C@@H](C(=O)N[C@]3(C(=O)NS(=O)(=O)C4CC4)C[C@H]3CC(F)F)N(C(=O)[C@@H](Nc3nc(-c4ccc(F)c(C(F)(F)F)c4)cs3)C(C)(C)C)C2)c2cc(Cl)ccc12 [Example 97, (2S,4R)-4-(7-chloro-4-methoxyisoquinolin-1-yloxy)-N-((1R,2S)-1-(cyclopropylsulfonylcarbamoyl)-2-(2,2-difluoroethyl)cyclopropyl)-1-((S)-2-(4-(4-fluoro-3-(trifluoromethyl)phenyl)thiazol-2-ylamino)-3,3-dimethylbutanoyl)pyrrolidine-2-carboxamide] | 1 to 20 nM | 1 to 50 nM
C=C[C@@H]1C[C@]1(NC(=O)[C@@H]1C[C@@H](Oc2cc(-c3ccccc3)nc3cc(OC)ccc23)CN1C(=O)[C@@H](Nc1nc(-c2ccccc2OC)cs1)C(C)(C)C)C(=O)NS(=O)(=O)C1CC1 [Example 2] | 1 to 20 nM | 1 to 50 nM
C=C[C@@H]1C[C@]1(NC(=O)[C@@H]1C[C@@H](Oc2ncc(OC)c3ccc(Cl)cc23)CN1C(=O)[C@@H](Nc1nc(-c2ccc(Cl)cc2)cs1)C(C)(C)C)C(=O)NS(=O)(=O)C1CC1 [Example 38] | 1 to 20 nM | 1 to 50 nM
C=C[C@@H]1C[C@]1(NC(=O)[C@@H]1C[C@@H](Oc2ncc(OC)c3ccc(Cl)cc23)CN1C(=O)[C@@H](Nc1nc(-c2ccc(OC)cc2)c(CC)s1)C(C)(C)C)C(=O)NS(=O)(=O)C1CC1 [Example 12] | 1 to 20 nM | 1 to 50 nM
